Measurements: patent US20260015311A1, “AMINO LIPID COMPOUND, PREPARATION METHOD THEREFOR, AND USE THEREOF” (SHENZHEN SHENXIN BIOTECHNOLOGY CO., LTD., priority 2022, published 2026)

Experiments:
Fluc mRNA [1] = test: In vivo delivery of luciferase mRNA (Fluc mRNA) by lipid nanoparticles, living imaging; design: species or system BALB/c mice; details: after 12 hours, total fluorescence
Description: (§1) The amino lipid compounds of the present disclosure were mixed with DOPE, cholesterol, and PEG2000-DMG in a molar ratio of 45:10:42.5:2.5 and dissolved in absolute ethanol. By using a microinjection pump, the resultant ethanol solution and a sodium acetate solution (50 mM, pH=4.0) were mixed in a ratio of 1:3 in a microfluidic chip to prepare a crude solution of lipid nanoparticles, which were then dialyzed in 1×PBS at a controlled temperature of 4° C. for 6 h using a dialysis box (Fisher, MWCO 20,000), and filtered through a 0.22 μm microporous filter membrane before use.
(§2) The formulation method was the same as the formulation method 1, except that the molar ratio of the amino lipid compounds to DSPC, cholesterol and PEG2000-DMG was 50:10:38.5:1.5.
The lipid nanoparticles prepared according to the above formulation method 1 or 2 were used in the biological experiments below for evaluating the performances of in vivo delivery of luciferase mRNA (Fluc mRNA). For the lipid nanoparticles obtained in the formulation method 1, the mass ratio of the amino lipid compounds to the luciferase mRNA was about 10:1, and the lipid nanoparticles were administered subcutaneously; and the lipid nanoparticles obtained in the formulation method 2 were administered by tail vein and intramuscular injection.
6-week-old female BALB/c mice weighed about 20 g were selected and fed in a SPF-grade feeding room. Animal tests were conducted strictly according to the guidelines of National Health institutions and the requirements of animal ethics.
(§3) 9 mice were assigned randomly to each group and injected with the lipid nanoparticles at a dosage of 0.5 mg/kg by three administration routes, i.e., subcutaneous, intramuscular and tail vein injection (three mice for each administration route). After 12 hours, D-luciferin potassium salt (200 μL, 10 mg/mL) was injected into each mouse through the tail vein. After 10 minutes, the total fluorescence intensity of each mouse was observed on a living imaging system (IVIS-200, Xenogen) and taken photographs for record. The expression intensities of Fluc mRNA delivered by representative amino lipid compounds through the three administration routes are shown in Table 2-4. MC3 was used as a control and SM102 was used as a comparative compound.

OVA protein = test: In vivo delivery of ovalbumin mRNA and immunity, IgG ELISA; design: species or system BALB/c mice; details: OVA mRNA LNP, injected intramuscularly 0.5 mg/kg Day 0 and Day 7, serum Day 21, FIG. 1
Description: as §1, with “compounds of formula (I)” for “compounds”, “of 50:10:38.5:1.5” for “of 45:10:42.5:2.5”, “ethanol. Ovalbumin mRNA (OVA mRNA) was dissolved in a sodium acetate solution (50 mM, pH=4.0).” for “ethanol.”, “and the” for “and a”
The mass ratio of the amino lipid compounds to the ovalbumin mRNA (OVA mRNA) in the obtained lipid nanoparticles was about 10:1.
6-week-old female BALB/c mice weighed about 20 g were selected and fed in a SPF-grade feeding room. Animal tests were conducted strictly according to the guidelines of National Health institutions and the requirements of animal ethics. […]
A flat-bottomed 96-well plate (Nunc) was pre-coated with OVA protein at a concentration of 0.5 μg protein per well in a 50 mM carbonate buffer (pH 9.6) at 4° C., and allowed to stay overnight, and then blocked with 5% glycine. […] After addition of the HRP substrate, the absorbance at 450 nm was measured on an ELISA plate reader (Bio-Rad).

Fluc mRNA [2] = test: Stability of lipid nanoparticles at 25° C., subcutaneous expression of Fluc mRNA; assay type: in vivo, mice
Description: as §1, §3
(§4) Preparation of Lipid Nanoparticles: The Formulation Method 1 was Used to Prepare LNPs for Subcutaneous Administration.
(§5) The particle size measurements were carried out on the day of preparation (week 0), and after one week (week 1), two weeks (week 2), and four weeks (week 4) of storage at 25° C., and the expression intensities of Fluc mRNA delivered by subcutaneous administration were determined on the day of preparation (week 0) and after four weeks (week 4).

[3] = Stability of lipid nanoparticles at 25° C., DLS particle size and PDI; assay type: physicochemical
Description: as §1, §4
Characterization of lipid nanoparticles: The particle size and PDI of the prepared lipid nanoparticles were measured by Nano-ZSZEN 3600 (Malvern). 40 μL of the LNP solution was taken for particle size measurement with circulation for three times, 30 seconds for each circulation.
as §5

Fluc mRNA [4] = test: Activity of lipid nanoparticles of formulation method 2, Fluc mRNA by intramuscular administration; assay type: in vivo, BALB/c mice
Description: as §2, §3
Preparation of Lipid Nanoparticles: LNPs were Prepared Using the Formulation Method 2 for Intramuscular Administration.
The measurement method was the same as that of Test Example 1.

influenza mRNA vaccine = test: In vivo delivery of influenza mRNA vaccine and immunity, IgG ELISA; design: species or system BALB/c mice; details: influenza mRNA LNP, injected subcutaneously 0.5 mg/kg Day 0 and Day 7, serum Day 21, FIG. 2
liver = test: Targeting assay, fluorescence in liver after intramuscular injection; assay type: in vivo, mice; details: 15 μg mRNA per animal, 6 h after injection, dissected liver
Description: The lipids were mixed with DSPC, CHO-HP, M-DMG2000 (i.e. PEG2000-DMG) in a molar ratio of 50:10:38.5:1.5 and dissolved in absolute ethanol. mRNA was dissolved in a sodium acetate solution (0.2M, pH=5.0). The samples of various prescriptions were prepared at a water phase:alcohol phase=9 ml/min: 3 ml/min by using a microfluidic equipment (MPE-L2) and a chip (SN.000035). The two phases were mixed by injecting them into the microfluidic chip according to the interface requirements, and then the drug solution was loaded into a 100KD dialysis bags, immersed in a beaker containing 1 L dialysis solution and wrapped with aluminum foil, and dialyzed at 100 rpm for 1 h at room temperature, and then the dialysis solution was replaced and the dialysis continued for 1 h.
Formulation of dialysis solution: 1×PBS+8% sucrose solution: 2 packets of 1×PBS powder were taken into a beaker, dissolved with 2 L DEPC water, added with 160 g of sucrose additionally, and mixed to obtain the 1×PBS+8% sucrose solution.
The mass ratio of mRNA:Lipids in the obtained lipid nanoparticles were about 1:10.
Fluorescent protein-encoding mRNA-LNP preparations containing Compound (I-6-II), MC3 or SM102, respectively were prepared by using the formulation method of mRNA lipid nanoparticle (LNP) preparations as described above, selecting a fluorescent protein-encoding mRNA as the mRNA and the compound (I-6-II), MC3 or SM102, respectively as the lipid.
Each preparation to be tested was administered to mice by intramuscular injection, with each animal receiving 15 μg mRNA preparation sample. 6 h after sample injection, the mice were anesthetized by isoflurane inhalation, and injected intraperitoneally with 200 μL of D-Luciferin (concentration 10 mg/ml) luciferase development substrate. […] After development of living imaging of the intramuscularly injected animals, they were immediately dissected, followed by observation of the fluorescence in the liver immediately after the dissection.

[5] = intramuscular injection, formulation method 2, 0.5 mg/kg
[6] = subcutaneous administration, formulation method 1, 0.5 mg/kg
[7] = tail vein administration, formulation method 2, 0.5 mg/kg

Row | SMILES | Fluorescence intensity (expression intensity of Fluc mRNA) (Fluc mRNA [1]; [5]) | Fluorescence intensity (expression intensity of Fluc mRNA) (Fluc mRNA [1]; [6]) | Fluorescence intensity (expression intensity of Fluc mRNA) (Fluc mRNA [1]; [7]) | IgG antibody titers (OVA protein) | Fluc expression change after four weeks (Fluc mRNA [2]; 25° C., week 4 versus week 0) | Fluc Expression intensities (Fluc mRNA [2]; week 0, subcutaneous administration) | Fluc Expression intensities (Fluc mRNA [2]; week 4, storage at 25° C., subcutaneous administration) | particle size change after four weeks of storage ([3]; 25° C., week 4 versus week 0) | particle size ([3]; preparation day (week 0)) | Z-Average ([3]; week 0 (day of preparation)) | PDI ([3]; week 1, storage at 25° C.) | Z-Average ([3]; week 1, storage at 25° C.) | PDI ([3]; week 2, storage at 25° C.) | Z-Average ([3]; week 2, storage at 25° C.) | Z-Average ([3]; week 4, storage at 25° C.) | Fluorescence intensity (expression intensity of Fluc mRNA) (Fluc mRNA [4]) | IgG antibody titers (influenza mRNA vaccine) | fluorescence intensity in liver (liver)
1 | CCCCCCCCCCCOC(=O)CCCCCN(CCCCCCCC(=O)OC(CCCCCCCC)CCCCCCCC)C1CC(O)C1 (stereo not drawn) [Compound 2] | 1.3E + 07 | 1.9E + 08 | 2.9E + 06 | comparable to those of MC3 and SM102 |  |  |  |  |  |  |  |  |  |  |  |  |  | 
2 | CCCCCCCCCCCOC(=O)CCCCCN(CCCCCCCC(=O)OC(CCCCCCCC)CCCCCCCC)C1CCCC(O)C1 (stereo not drawn) [Compound 7] | 3.7E + 07 | 2.9E + 08 | 2.9E + 07 | stronger immune response | did not decrease significantly | 2.9E+08 | 2.6E+08 | did not increase significantly | about 100 nm | 95 nm·days | 0.05 | 105 nm·days | 0.06 | 115 nm·days | 120 nm·days | 3.7E + 07 |  | 
3 | CCCCCCCC/C=C\CCCCCCCC(=O)OCCCCCCCCN(CCCCCCOC(=O)C(CCCCCC)CCCCCCCC)C1CCCC(O)C1 (stereo not drawn) [Compound 10] |  | 1.1E + 07 |  |  |  |  |  |  |  |  |  |  |  |  |  |  | comparable to those of SM102 | 
4 | CCCCC/C=C\C/C=C\CCCCCCCCC(CCCCCCCC/C=C\C/C=C\CCCCC)OC(=O)CCCN(C)C [MC3, reference compound] | 2.7E + 07 | 3.7E + 06 | 2.7E + 07 |  |  |  |  |  |  |  |  |  |  |  |  |  | lowest IgG antibody titers | 1.23E+05
